Laboratory results from article PMC11609934, “Exploration and characterization of the antimalarial activity of cyclopropyl carboxamides that target the mitochondrial protein, cytochrome b” (European Journal of Medicinal Chemistry, 2024).
Like-named read-outs stand apart in the source and are kept apart here.

Key:
[1] = test system: P. falciparum 3D7 parasites; experiment: P. falciparum 3D7 asexual stage LDH assay (72 h); assay type: cell-based, Plasmodium falciparum; settings: for EC50: Plasmodium falciparum, 3D7, 72 h, means and SDs, three or more experiments; for fold decrease in Pf 3D7 activity relative to 17: ratio of EC50 to compound 17; for fold loss in Pf 3D7 activity relative to W499 (2): carboxamide variants versus cyclopropyl parent
Protocol: To establish the SAR, synthesized analogs were assessed against the asexual stage parasite (72 h) using LDH as a proxy for parasite growth inhibition. Cytotoxicity was monitored against the human HepG2 cell line using Cell TitreGlo as a metabolic marker for cell growth.
P. falciparum 3D7 Asexual Stage LDH Assay. This is a platform assay is routinely undertaken at the Walter and Eliza Hall Institute and details on the protocol has been previously published. Briefly, 10-point dilution series of the compounds were prepared in 384 well assay plates using an Echo555 (Labcyte). Appropriate volumes of 10 mM compound stocks were transferred into the assay plates such that the starting concentration was 1 μM, with a 1 in 3-fold dilution series. All wells were backfilled with DMSO to 40 nL such that this remained constant (0.1 % DMSO). The positive growth control was 0.1 % DMSO and the negative growth control was 100 nM chloroquine. The parasite inoculum (40 μL) was dispensed into plates containing compounds using a Multidrop Combi dispenser (Thermo Scientific). […] Following 72 h growth, plates were sealed with parafilm and frozen at −80 °C overnight. Plates were thawed at room temperature for at least 4 h prior to LDH activity being measured. […] Plates were shaken to ensure mixing and absorbance at 650 nm was measured in an EnVision (PerkinElmer) plate reader after 30 min of incubation at room temperature. […] The equation used is sigmoidal dose response (variable slope), Y = bottom + (top − bottom)/(1 + 10((logEC50 − X) × Hill Slope)).

[2] = Human HepG2 growth inhibition assay (Cell TitreGlo, 48 h); assay type: cell-based; settings: human, HepG2 cells, HepG2 cell growth inhibition over 48 h
Protocol: To establish the SAR, synthesized analogs were assessed against the asexual stage parasite (72 h) using LDH as a proxy for parasite growth inhibition. Cytotoxicity was monitored against the human HepG2 cell line using Cell TitreGlo as a metabolic marker for cell growth. Cyt b inhibitors typically have high lipophilicity, and so calculated physicochemical properties were determined, while in vitro ADME was also collected on representative analogs to gauge their suitability for efficacy studies in a 4-day P. berghei model.
Human HepG2 Growth Inhibition Assay. This is a routine assay undertaken at the Walter and Eliza Hall Institute and the method has been previously published. HepG2 cells were cultured in Dulbeccos modified eagles medium (DMEM) supplemented with 10 % fetal calf serum (FCS), in a humidified incubator at 37 °C and 5 % CO2. Assay plates (Greiner #781098, 384 well, white, tissue culture treated) were prepared by transferring appropriate volumes of 10 mM compound stocks using an Echo555 (Labcyte) such that the starting concentration was 50 μM, with a 1:2-fold dilution series. All wells were backfilled with DMSO to […] such that this remained constant (0.5 % DMSO). The positive growth control was 0.5 % DMSO and the negative growth control was 10 μM Bortezomib. HepG2 cells were seeded with 1000 cells in 50 μL DMEM with 10 % FCS into each well of the assay plates using a Multidrop Combi dispenser (Thermo Scientific). Plates were incubated at 37 °C and 5 % CO2 for 48 h. Cytotoxicity was determined using Cell Titer Glo (Promega) and calculated as a percentage using DMSO as the positive growth control and 10 μM Bortezomib as a negative growth control. EC50 values were calculated by Dotmatics 5.3 and Spotfire 7.11.1 software using a nonlinear regression four-parameter fit analysis. The equation used is sigmoidal dose response (variable slope), Y = bottom + (top − bottom)/(1 + 10((logEC50 − X) × Hill Slope)).

[3] = LDH activity of P. falciparum 3D7 parasites over 72 h, read-out: Pf 3D7 EC50 (SD)
[4] = read-out: Pf 3D7 EC50 (SD), LDH activity of P. falciparum 3D7 parasites over 72 h

Compound | EC50 [1, 3] | fold decrease in Pf 3D7 activity relative to 17 [1] | CC50 at 48 h [2] | fold loss in Pf 3D7 activity relative to W499 (2) [1] | EC50 [1, 4]
O=C(NC1CC1)c1ccc(CNCc2ccccc2)cc1 [Compound 18, 4-((Benzylamino)methyl)-N-cyclopropylbenzamide] | > 10000 nM | – | – | – | –
CN(Cc1ccccc1)Cc1ccc(C(=O)NC2CC2)cc1 [Compound 19, 4-((Benzyl(methyl)amino)methyl)-N-cyclopropylbenzamide] | 2600 nM | 20 fold | > 40000 nM | – | –
CCN(Cc1ccccc1)Cc1ccc(C(=O)NC2CC2)cc1 [Compound 20, 4-((Benzyl(ethyl)amino)methyl)-N-cyclopropylbenzamide] | 700 nM | 4 fold | > 40000 nM | – | –
CC(C)(C)N(Cc1ccccc1)Cc1ccc(C(=O)NC2CC2)cc1 [Compound 23, 4-((Benzyl(tert-butyl)amino)methyl)-N-cyclopropylbenzamide] | 630 nM | – | > 40000 nM | – | –
CCC(C)N(Cc1ccccc1)Cc1ccc(C(=O)NC2CC2)cc1 (stereo not drawn) [Compound 24, 4-((Benzyl(sec-butyl)amino)methyl)-N-cyclopropylbenzamide] | 210 nM | – | > 40000 nM | – | –
O=C(NC1CC1)c1ccc(CN(Cc2ccccc2)Cc2ccccc2)cc1 [Compound 27, N-Cyclopropyl-4-((dibenzylamino)methyl)benzamide] | – | – | > 40000 nM | – | –
O=C(NC1CC1)c1cccc(CN(Cc2ccccc2)C2CC2)c1 [Compound 28, 3-((Benzyl(cyclopropyl)amino)methyl)-N-cyclopropylbenzamide] | 5600 nM | 40 fold | > 40000 nM | – | –
NC(=O)c1ccc(CN(Cc2ccc(Cl)cc2Cl)C2CC2)cc1 [Compound 29] | > 10000 nM | – | – | – | –
CNC(=O)c1ccc(CN(Cc2ccc(Cl)cc2Cl)C2CC2)cc1 [Compound 30] | 1180 nM | – | > 40000 nM | – | –
CCNC(=O)c1ccc(CN(Cc2ccc(Cl)cc2Cl)C2CC2)cc1 [Compound 31, 4-((Cyclopropyl(2,4-dichlorobenzyl)amino)methyl)-N-ethylbenzamide] | 310 nM | – | > 40000 nM | – | –
CCCNC(=O)c1ccc(CN(Cc2ccc(Cl)cc2Cl)C2CC2)cc1 [Compound 32, 4-((Cyclopropyl(2,4-dichlorobenzyl)amino)methyl)-N-propylbenzamide] | 640 nM | – | > 40000 nM | – | –
CC(C)NC(=O)c1ccc(CN(Cc2ccc(Cl)cc2Cl)C2CC2)cc1 [Compound 33] | 690 nM | – | > 40000 nM | – | –
O=C(NCC(F)(F)F)c1ccc(CN(Cc2ccc(Cl)cc2Cl)C2CC2)cc1 [Compound 34, 4-((Cyclopropyl(2,4-dichlorobenzyl)amino)methyl)-N-(2,2,2-trifluoroethyl)benzamide] | > 10000 nM | – | – | – | –
CN(C)CCNC(=O)c1ccc(CN(Cc2ccc(Cl)cc2Cl)C2CC2)cc1 [Compound 35] | 7600 nM | – | 9300 nM | – | –
NCCNC(=O)c1ccc(CN(Cc2ccc(Cl)cc2Cl)C2CC2)cc1 [Compound 36, 2-(4-((Cyclopropyl(2,4-dichlorobenzyl)amino)methyl)benzamido)ethan-1-aminium 2,2,2-trifluoroacetate] | > 10000 nM | – | – | – | –
O=C(NCCO)c1ccc(CN(Cc2ccc(Cl)cc2Cl)C2CC2)cc1 [Compound 37, 4-((Cyclopropyl(2,4-dichlorobenzyl)amino)methyl)-N-(2-hydroxyethyl)benzamide] | 2400 nM | – | > 40000 nM | approximately 25 fold | –
O=C(NC1CCC1)c1ccc(CN(Cc2ccc(Cl)cc2Cl)C2CC2)cc1 [Compound 38] | 480 nM | – | > 40000 nM | 4 fold | –
O=C(NC1CCCC1)c1ccc(CN(Cc2ccc(Cl)cc2Cl)C2CC2)cc1 [Compound 39] | – | – | > 40000 nM | 12 fold | 1200 nM
O=C(Nc1ccccc1)c1ccc(CN(Cc2ccc(Cl)cc2Cl)C2CC2)cc1 [Compound 40] | – | – | > 40000 nM | – | –
O=C(NC1CC1)c1ccc(CN(Cc2ccccc2F)C2CC2)cc1 [Compound 42] | 250 nM | – | > 40000 nM | – | –

Compound | EC50 [1, 3] | fold decrease in Pf 3D7 activity relative to 17 [1] | CC50 at 48 h [2] | fold loss in Pf 3D7 activity relative to W499 (2) [1] | EC50 [1, 4]
O=C(NC1CC1)c1ccc(CN(Cc2cccc(F)c2)C2CC2)cc1 [Compound 43] | 240 nM | – | > 40000 nM | – | –
O=C(NC1CC1)c1ccc(CN(Cc2ccc(F)cc2)C2CC2)cc1 [Compound 44] | 220 nM | – | > 40000 nM | – | –
O=C(NC1CC1)c1ccc(CN(Cc2ccccc2Cl)C2CC2)cc1 [Compound 45, 4-(((2-Chlorobenzyl) (cyclopropyl)amino)methyl)-N-cyclopropylbenzamide] | 290 nM | – | > 40000 nM | – | –
O=C(NC1CC1)c1ccc(CN(Cc2cccc(Cl)c2)C2CC2)cc1 [Compound 46, 4-(((3-Chlorobenzyl) (cyclopropyl)amino)methyl)-N-cyclopropylbenzamide] | 340 nM | – | > 40000 nM | – | –
O=C(NC1CC1)c1ccc(CN(Cc2ccc(Cl)cc2)C2CC2)cc1 [Compound 47, 4-(((4-Chlorobenzyl) (cyclopropyl)amino)methyl)-N-cyclopropylbenzamide] | 210 nM | – | > 40000 nM | – | –
Cc1ccccc1CN(Cc1ccc(C(=O)NC2CC2)cc1)C1CC1 [Compound 48] | 200 nM | – | > 40000 nM | – | –
O=C(NC1CC1)c1ccc(CN(Cc2ccccc2C(F)(F)F)C2CC2)cc1 [Compound 49] | 220 nM | – | > 40000 nM | – | –
Cc1cccc(CN(Cc2ccc(C(=O)NC3CC3)cc2)C2CC2)c1 [Compound 50] | 170 nM | – | > 40000 nM | – | –
Cc1ccc(CN(Cc2ccc(C(=O)NC3CC3)cc2)C2CC2)cc1 [Compound 51] | 150 nM | – | > 40000 nM | – | –
O=C(NC1CC1)c1ccc(CN(Cc2cccc(C(F)(F)F)c2)C2CC2)cc1 [Compound 52] | 160 nM | – | > 40000 nM | – | –
O=C(NC1CC1)c1ccc(CN(Cc2ccc(C(F)(F)F)cc2)C2CC2)cc1 [Compound 53] | 110 nM | – | > 40000 nM | – | –
CC(=O)Nc1cccc(CN(Cc2ccc(C(=O)NC3CC3)cc2)C2CC2)c1 [Compound 66, 4-(((3-Acetamidobenzyl) (cyclopropyl)amino)methyl)-N-cyclopropylbenzamide] | > 10000 nM | – | – | – | –
CC(=O)Nc1ccc(CN(Cc2ccc(C(=O)NC3CC3)cc2)C2CC2)cc1 [Compound 67, 4-(((4-Acetamidobenzyl) (cyclopropyl)amino)methyl)-N-cyclopropylbenzamide] | > 10000 nM | – | – | – | –
O=C(NC1CC1)c1ccc(CN(Cc2cccnc2)C2CC2)cc1 [Compound 86] | > 10000 nM | – | – | – | –
O=C(NC1CC1)c1ccc(CNC2CC2)cc1 [Compound 88, N-cyclopropyl-4-((cyclopropylamino)methyl)benzamide] | > 10000 nM | – | – | – | –
CN(Cc1ccc(C(=O)NC2CC2)cc1)C1CC1 [Compound 89] | > 10000 nM | – | – | – | –
CC(C)CN(Cc1ccc(C(=O)NC2CC2)cc1)C1CC1 [Compound 92] | – | approximately 4 fold | – | – | 540 nM
O=C(NC1CC1)c1ccc(CN(C(=O)c2ccccc2)C2CC2)cc1 [Compound 99, N-Cyclopropyl-N-(4-(cyclopropylcarbamoyl)benzyl)benzamide] | > 10000 nM | – | – | – | –
O=C(NC1CC1)c1ccc(C(=O)N(Cc2ccccc2)C2CC2)cc1 [Compound 100, N [4]-Benzyl-N^1,N [4]-dicyclopropyl-terephthalamide] | > 10000 nM | – | – | – | –
O=C(NC1CC1)c1ncc(CN(Cc2ccccc2)C2CC2)s1 [Compound 106, 5-((Benzyl(cyclopropyl)amino)methyl)-N-cyclopropylthiazole-2-carboxamide] | > 10000 nM | – | – | – | –
